These results are taken from patent US20220347186A1, “METHODS AND COMPOSITIONS FOR TREATING SICKLE CELL DISEASE AND THALASSEMIA” (THE UNIVERSITY OF CHICAGO, priority 2019, published 2022).

Experiment [1] has as its system K562 cells. Nature of the experiment: Cell growth and viability of K562 cells with BET inhibitor. The experiment is classed as cell-based. The settings on record: 200 nM vs DMSO control. As for the experimental part: (§1) K562, HEL, and HL-60 cells were cultured in RPMI 1640 medium supplemented with 10% FBS. TF-1 cells were cultured in RPMI 1640 medium supplemented with 10% FBS and 4 ng/mL GM-CSF. Before treatment, TF-1 cells were washed 4× with RPMI 1640 without supplements, and cultured in RPMI 1640 medium with 10% FBS but no GM-CSF for 24 hours. 4 ng/mL GM-CSF or 3 units/mL EPO were added at the time of treatment set up. K562, HEL, and HL-60 cells were cultured as normal until treatment set up. JQ1 (Sigma-Aldrich, SML1524), CPI-0610 (Selleck Chemicals, S7853), and PLX51107 (MedChemExpress, HY-111422) were dissolved in DMSO to 10 mM concentration and stored in −80° C. All three inhibitors were applied to cells at 200 nM, with parallel DMSO treatment (0.002%) as control. JQ1 and PLX51107 were added to cell culture at day 0 without additional treatments up to day 5. CPI-0610 was reapplied to the cells on a daily basis.

Experiment [2] concerns K562 cells. Nature of the experiment: RT-qPCR quantification of gene expression in K562 cells. Type of experiment: cell-based, human. Here is the method: as §1
cDNA libraries for mRNAs were made from 1 μg input RNA using High-Capacity cDNA Reverse Transcription Kit (ThermoFisher, 4368814). Gene expressions were quantified using Power SYBR Green PCR Master Mix (Thermofisher, 4367659). For microRNAs, cDNA libraries were made with Taqman Advanced miRNA cDNA Synthesis Kit (Thermofisher, A28007). miR-15A and miR-16-1 were quantified using the Taqman Advanced miRNA Assays (ThermoFisher, A25576) specific to hsa-miR-15a-5p (assay ID: 477858_mir) and hsa-miR-16-5p (assay ID: 477860_mir).
In general terms: Real-time PCR tracks product formation cycle by cycle.

In experiment [3] the test system is TF-1 cells. The experiment in a line: RNA-seq gene expression in TF-1 cells. The experiment is classed as cell-based, human. As for the experimental part:
as §1
Sample RNA libraries were prepared using the KAPA mRNA HyperPrep Kit (Roche, KK8580) with 1 μg input RNA and submitted for sequencing. Raw reads in fastq format were aligned to the hg19 reference genome using HISAT2(38) with Gencode gene and transcript annotation (GRCh37.p13)(39). Gene expression was quantified and compared by tools in the Cuffliks package (40). GO analysis and term clustering was performed using g:Profiler and Cytoscape following the protocols published by Reimand et al (41).

For experiment [4], the system named is GATA1 in K562 cells. The experiment in a line: Immunoprecipitation and quantification of total and acetyl-GATA1. The experiment is classed as cell-based. The settings on record: K562 nuclear lysate. As for the experimental part: Nuclear protein was extracted according to previously described protocol (45). 10% of the nuclear protein extraction was saved as input. The remaining nuclear extract was diluted with non-denaturing IP buffer (20 mM Tris-HCl pH 8, 137 mM NaCl, 10% glycerol, 1% Triton X-100, 2 mM EDTA) and pre-cleared with normal rat IgG (Santa Cruz, sc2026) and Dynabeads Protein G (ThermoFisher, 10004D). Pre-cleared solutions were split into two equal portions, and 5 μg of anti-GATA1 antibody (Santa Cruz, sc266) or normal rat IgG were added to either portion and incubated overnight at 4° C. overnight. Antibodies were then pulled-down using Dynabeads Protein G, and washed 1× with the IP buffer and 2× with PBS containing 1% Triton X-100. The beads were boiled in 2× protein loading buffer to dissociate the proteins. Input and IP-ed proteins were ran on SDS-PAGE gels and transferred to PVDF membranes. The input samples were blotted using anti-topoisomerase 1 (Abcam, ab109374) and anti-GATA1 antibodies, and the IP-ed samples were blotted with anti-acetyl-lysine antibody (Abcam, ab21623). Quantification of signal intensity was done by ImageJ, and GATA1 and acetyl-GATA1 signals were normalized to the topoisomerase 1 signals in each sample.

Each structure is given as a SMILES string. Entries after “also recorded” stand apart in the source; their conditions may differ.

In the case of `Cc1sc2c(c1C)C(c1ccc(Cl)cc1)=N[C@@H](CC(=O)OC(C)(C)C)c1nnc(C)n1-2` [JQ1], in experiment [1], the Cell growth entry is given as “grow slower; also recorded: not significantly affected; also recorded: slightly suppresses cell growth, but this effect was not statistically significant; also recorded: slightly suppress cell growth, but this effect was not statistically significant” and the Cell viability entry is “unaffected; also recorded: not significantly affected; also recorded: did not affect cell viability”. Moreover, in experiment [2], the miR-15A expression entry is recorded as “significantly upregulated” and the miR-16-1 expression entry is listed as “significantly upregulated”. In addition, in experiment [2] (200 nM, 5-day time course), the HBB expression entry was “unaffected”, the HBE1 expression result is listed as “upregulated” and the HBG1/2 expression entry was “upregulated”. The MYC expression result in experiment [2] (200 nM, up to 4 days after the initial treatment) is given as “consistently suppressed”. Further, in experiment [2] (RT-qPCR), the BGLT3 expression increase came out at 6 fold, the HEMGN expression result is reported as “significantly suppressed” and the MYB expression result is “significantly suppressed”. Further, in experiment [3] (TF-1 cells), the GATA1 expression entry is reported as “did not change”, the “HBA1/2 expression (α-globin locus)” value was “upregulated”, the “HBE1 expression (β-globin locus)” value is “specifically induced” and the HEMGN expression result is reported as “significantly suppresses”. Also, the KLF1 expression entry in experiment [3] (TF-1 cells, erythropoietic condition) is listed as “slightly decreased”. For the same compound, the ALAS2 expression result in experiment [3] (TF-1 cells, especially under erythropoietic conditions) is “upregulated”. Also, the KLF1 expression entry in experiment [3] (TF-1 cells, proliferative condition) is “significantly suppressed”. For the same compound, the NR2F2 expression result in experiment [3] (proliferative TF-1 cells) is recorded as “significantly suppressed”. Moreover, the GATA1 acetylation result in experiment [4] (IP, anti-acetyl-lysine) was “remained unchanged; also recorded: does not affect”. For the same compound, the “Total GATA1 level” value in experiment [4] (normalized to TOP1) was “did not affect”.
